The source of these data is patent US20060057665A1, “Galectin-14 therapeutic molecule and uses thereof” (The University of Melbourne, priority 2001, published 2006).

One assay has as its system GST-galectin-14. The assay can be described thus: Saccharide inhibition of GST-galectin-14 induced hemagglutination. In kind it is cell-based, rabbit. The conditions noted are these: 0.28 μM GST-galectin-14; sugars 0.78-100 mM. As to the method: FIG. 14 is an image of a hemagglutination assay using GST-galectin-14 fusion protein. Agglutination of rabbit erythrocytes was assayed in a 96-well microtiter plate. Assays were conducted in the presence (2, 3, 4, and 5) or absence (1 and 6) of 0.28 μM recombinant GST-galectin-14, the minimum concentration to induce agglutination. Increasing concentrations (0.78-100 mM) of lactose (2), galactose (3), or N-acetyl-glucosamine (4) were added to inhibit agglutination. In the presence of GST-galectin-14 without sugar (5) the rabbit erythrocytes form a “mat” at the bottom of the wells. The assay buffer DES alone (1) and 3 μM rGST (6) were included as negative controls. Trypsin-treated, glutaraldehyde fixed rabbit erythrocytes were prepared and tested in an agglutination assay according to the method of Nowak et al. (Nowak et al. (1976) supra). Agglutination assays were performed in 96-well V-shaped microtiter plates with serial 2-fold dilutions of samples in 25 μl of DES (0.15 M NaCl, 2 mM EDTA, 2 mM dithiothreitol), 50 μl of 0.5% (w/v) BSA in 0.15 M NaCl and 25 μl of a 4% suspension of rabbit erythrocytes. The plates were shaken vigorously for 30 s, and agglutination was read after the plates had stood at room temperature for 1 h. Agglutinated erythrocytes formed a “mat” on the bottom of the well. For assessment of the inhibitory effects of saccharides, lactose, galactose, and N-acetyl-glucosamine were serially diluted in 25 μl of 0.15 M NaCl prior to the addition of recombinant protein in DES, 25 μl of 1% (w/v) BSA in 0.15 M NaCl, and 4% erythrocytes in PBS. The minimum concentration of GST-galectin-14 that gave mat formation (0.28 μM) was used in the saccharide inhibition assay. For assessment of the effects of antibody on GST-galectin-14 hemagglutination, ascites and supernatants from monoclonal antibodies and polyclonal rabbit sera all raised to recombinant galectin-14 were serially diluted in 25 μl of 0.15 M NaCl prior to the addition of recombinant protein in DES, 25 μl of 1% (w/v) BSA in 0.15 M NaCl, and 4% erythrocytes in PBS. […]

A further assay relates to rabbit erythrocytes. The assay can be described thus: Hemagglutination assay on trypsin-treated, glutaraldehyde fixed rabbit erythrocytes. Type of assay: cell-based. The conditions noted are these: negative control protein, 3 μM rGST. As to the method: Trypsin-treated, glutaraldehyde fixed rabbit erythrocytes were prepared and tested in an agglutination assay according to the method of Nowak et al. (Nowak et al. (1976) supra). Agglutination assays were performed in 96-well V-shaped microtiter plates with serial 2-fold dilutions of samples in 25 μl of DES (0.15 M NaCl, 2 mM EDTA, 2 mM dithiothreitol), 50 μl of 0.5% (w/v) BSA in 0.15 M NaCl and 25 μl of a 4% suspension of rabbit erythrocytes. The plates were shaken vigorously for 30 s, and agglutination was read after the plates had stood at room temperature for 1 h. Agglutinated erythrocytes formed a “mat” on the bottom of the well. For assessment of the inhibitory effects of saccharides, lactose, galactose, and N-acetyl-glucosamine were serially diluted in 25 μl of 0.15 M NaCl prior to the addition of recombinant protein in DES, 25 μl of 1% (w/v) BSA in 0.15 M NaCl, and 4% erythrocytes in PBS. The minimum concentration of GST-galectin-14 that gave mat formation (0.28 μM) was used in the saccharide inhibition assay. For assessment of the effects of antibody on GST-galectin-14 hemagglutination, ascites and supernatants from monoclonal antibodies and polyclonal rabbit sera all raised to recombinant galectin-14 were serially diluted in 25 μl of 0.15 M NaCl prior to the addition of recombinant protein in DES, 25 μl of 1% (w/v) BSA in 0.15 M NaCl, and 4% erythrocytes in PBS. […]

The subject of assay [1] is GST-galectin-14 binding to laminin. Nature of the assay: Lactose inhibition of GST-galectin-14 binding to immobilised laminin. The conditions noted are these: 0.3 M lactose added. Here is the method:
FIG. 17 is an image of the saturation binding of GST-galectin-14 fusion protein to immobilised laminin. Laminin binding of GST-galectin-14 fusion protein was assayed using a solid-phase binding assay in a 96-well microtitre plate. Serial dilutions of GST-galectin-14 (▪) and GST (▴) were added to microtitre wells containing laminin. 0.3 M Lactose was added to GST-galectin-14 to inhibit binding (◯). The level of bound protein was monitored by the binding of rabbit anti-GST HRP antibody developed with TMB substrate and detected by a change in absorbance at 450 nm. Laminin binding activity was measured according to the method of Mazurek et al. with some modification. Briefly, the wells of a 96-well microtitre plate were coated with laminin from Engelbreth-Holm-Swarm murine sarcoma (Sigma) at 1 μg/100 μl of carbonate coating buffer (15 mM Na2CO3, 35 mM NaHCO3, pH 9.6) per well overnight at 4° C. Non-specific binding sites were blocked with 200 μl of 0.5% Tween 20 in PBS for 1 h. Plates were washed 3 times in 0.05% Tween 20 PBS and incubated with 50 μl serial dilutions of GST-galectin-14 or GST alone, diluted in 0.5% Tween 20 PBS, for 1.5 h at 37° C. Control wells contained 0.3 M lactose. […] The reaction was terminated with 100 μl 2 M sulphuric acid and the colour change monitored using a dual wavelength mode plate reader (Bio-tek instruments) at 450 nm, ref 690 nm.

Consider `CC(=O)N[C@H]1C(O)O[C@H](CO)[C@@H](O)[C@@H]1O` (some centres unmarked) [N-acetyl-glucosamine], for which the “lowest sugar concentration at which inhibition of agglutination becomes evident” value in the assay on GST-galectin-14 was 50 mM.
On to “GST: GST moiety alone, used as negative control protein [reference compound]”, for which, in the assay with rabbit erythrocytes, the induction of hemagglutination result is “does not”.
On to `OC[C@H]1O[C@@H](O[C@H]2[C@H](O)[C@@H](O)C(O)O[C@@H]2CO)[C@H](O)[C@@H](O)[C@H]1O` (some centres unmarked) [lactose], for which the “effect on binding of GST-galectin-14 to laminin” value in assay [1] is “reduced to the level of the control”. In addition, the “lowest sugar concentration at which inhibition of agglutination becomes evident” value in the assay on GST-galectin-14 is reported as 0.78 mM.
In the case of `O=C[C@H](O)[C@@H](O)[C@@H](O)[C@H](O)CO` [galactose], in the assay on GST-galectin-14, the “lowest sugar concentration at which inhibition of agglutination becomes evident” value is reported as 12.5 mM.
